Assay results taken from US12016833B2 (ACEBiomed, Inc., priority 2020, dated 2024).
Where two headings read alike, the source gives them in different places.

Experiments:
[1] = HFD rats; colchicine (10 μg/kg) alone or colchicine (10 μg/kg)/metformin (50 mg/kg), oral gavage 3 times a week, 6 weeks; FIG. 2
Procedure: (§1) The drugs were administered with a high fat diet for a total of 6 weeks, and administered by oral gavage 3 times a week.

AMPK [2] = details: drug treatment for 7 hours; FIG. 7
AMPK [3] = details: HFD rats; colchicine 100 μg/kg alone or with metformin 100 mg/kg; FIG. 6
Procedure: as §1

ACC [4] = details: rat AML12 liver cell line; drug treatment for 7 hours; FIG. 7
obesity-induced rats [5] = details: HFD rats
Procedure: as §1

obesity-induced rats [6] = test: Fat accumulated in liver tissue, oil red O staining; format: in vivo; details: HFD rats; FIG. 5
Text: In addition, in order to examine a quantitative change of fat accumulated in the liver tissues of the rats, the fat was confirmed by staining using an oil red O method, and the results were shown in FIG. 5.

obesity-induced rats [7] = details: HFD rats; remark: listed apart in the source
Procedure: as §1

ACC [8] = details: HFD rats; colchicine 100 μg/kg alone or with metformin 100 mg/kg; FIG. 6
Procedure: as §1

obesity-induced rats [9] = details: HFD rats; remark: listed apart in the source
Procedure: as §1

obesity-induced rats [10] = test: Anatomical test of liver cross-sections by H&E staining; format: in vivo; details: HFD rats; colchicine 100 μg/kg alone or with metformin 100 mg/kg; FIG. 4
Text: For the anatomical test of the cross-sections of the livers of the rats, H&E staining was applied, and the results were shown in FIG. 4.

[11] = colchicine 10 μg/kg alone, Table 3
[12] = colchicine 50 μg/kg alone, Table 3
[13] = colchicine 100 μg/kg alone, Table 3
[14] = colchicine 100 μg/kg alone, Table 4
[15] = colchicine 200 μg/kg alone, Table 3
[16] = colchicine 10 μg/kg alone, Table 1
[17] = colchicine 50 μg/kg alone, Table 1
[18] = colchicine 100 μg/kg alone, Table 1
[19] = colchicine 100 μg/kg alone, Table 2
[20] = colchicine 200 μg/kg alone, Table 1

In the case of `COc1cc2c(c(OC)c1OC)-c1ccc(OC)c(=O)cc1[C@@H](NC(C)=O)CC2` [Colchicine], the “change in weights of the whole rats” value [1] is reported as “no significant change”, the “activation of AMPK” value (AMPK [2]) is reported as “increased” and the “activation of AMPK in liver tissues” value (AMPK [3]) is reported as “partially recovered”. For the same compound, the “activation of ACC” value (ACC [4]) was “increased”, the ALT (obesity-induced rats [5]; [11]) was 1742.57 ± 102.71 U/L and the AST (obesity-induced rats [5]; [11]) was 1766.90 ± 90.48 U/L. The Total protein (obesity-induced rats [5]; [11]) was 5.07 ± 0.30 g/dL, the ALT (obesity-induced rats [5]; [12]) was 1602.38 ± 61.31 U/L and the AST (obesity-induced rats [5]; [12]) was 1759.49 ± 61.71 U/L. For the same compound, the Total protein (obesity-induced rats [5]; [12]) was 5.21 ± 0.33 g/dL, the ALT (obesity-induced rats [5]; [13]) was 1466.48 ± 49.34 U/L and the AST (obesity-induced rats [5]; [13]) was 1614.70 ± 78.28 U/L. The Total protein (obesity-induced rats [5]; [13]) was 5.24 ± 0.13 g/dL, the ALT (obesity-induced rats [5]; [14]) was 1508.64 ± 102.38 U/L and the AST (obesity-induced rats [5]; [14]) was 1574.22 ± 75.98 U/L. For the same compound, the Total protein (obesity-induced rats [5]; [14]) was 5.13 ± 0.22 g/dL, the ALT (obesity-induced rats [5]; [15]) was 1735.40 ± 86.49 U/L and the AST (obesity-induced rats [5]; [15]) was 1833.70 ± 131.74 U/L. The Total protein (obesity-induced rats [5]; [15]) was 5.09 ± 0.32 g/dL, the “fat accumulation in the liver tissues (oil red O)” value (obesity-induced rats [6]) was “reduced” and the Ballooning degeneration (obesity-induced rats [7]; FIG. 3) was “reduced”. For the same compound, the Portal inflammation (obesity-induced rats [7]; FIG. 3) was “reduced”, the macrovesicular steatosis (obesity-induced rats [7]; FIG. 3) was “no effect” and the microvesicular steatosis (obesity-induced rats [7]; FIG. 3) was “reduced”. For the same compound, the Ballooning degeneration (obesity-induced rats [7]; [16]) was 2, the Fatty necrosis (obesity-induced rats [7]; [16]) was 3 and the Fibrosis (obesity-induced rats [7]; [16]) was 3. For the same compound, the Portal inflammation (obesity-induced rats [7]; [16]) was 2, the Total score (obesity-induced rats [7]; [16]) was 10 and the Ballooning degeneration (obesity-induced rats [7]; [17]) was 2. It also gave a Fatty necrosis (obesity-induced rats [7]; [17]) of 2, a Fibrosis (obesity-induced rats [7]; [17]) of 2 and a Portal inflammation (obesity-induced rats [7]; [17]) of 2. For the same compound, the Total score (obesity-induced rats [7]; [17]) was 8, the Ballooning degeneration (obesity-induced rats [7]; [18]) was 1 and the Fatty necrosis (obesity-induced rats [7]; [18]) was 2. It also gave a Fibrosis (obesity-induced rats [7]; [18]) of 1, a Portal inflammation (obesity-induced rats [7]; [18]) of 1 and a Total score (obesity-induced rats [7]; [18]) of 5. For the same compound, the Ballooning degeneration (obesity-induced rats [7]; [19]) was 1, the Fatty necrosis (obesity-induced rats [7]; [19]) was 2 and the Fibrosis (obesity-induced rats [7]; [19]) was 1. For the same compound, the Portal inflammation (obesity-induced rats [7]; [19]) was 2, the Total score (obesity-induced rats [7]; [19]) was 6 and the Ballooning degeneration (obesity-induced rats [7]; [20]) was 2. It also gave a Fatty necrosis (obesity-induced rats [7]; [20]) of 2, a Fibrosis (obesity-induced rats [7]; [20]) of 1 and a Portal inflammation (obesity-induced rats [7]; [20]) of 2. For the same compound, the Total score (obesity-induced rats [7]; [20]) was 7, the “activation of ACC in liver tissues” value (ACC [8]) was “partially recovered” and the Hydroxyproline (obesity-induced rats [9]; colchicine 10 μg/kg alone, Table 5) was 345.28 ± 8.14 μg/g of liver. For the same compound, the Hydroxyproline (obesity-induced rats [9]; colchicine 50 μg/kg alone, Table 5) was 326.46 ± 14.55 μg/g of liver, the Hydroxyproline (obesity-induced rats [9]; colchicine 100 μg/kg alone, Table 5) was 308.13 ± 5.04 μg/g of liver and the Hydroxyproline (obesity-induced rats [9]; colchicine 100 μg/kg alone, Table 6) was 316.68 ± 13.36 μg/g of liver. For the same compound, the “steatosis in the liver tissues (H&E staining)” value (obesity-induced rats [10]) was “reduced”.
